Organism: Rattus norvegicus
Experiment: DrugMatrix - Regimen: Daily Repeat
Assay type: toxicity, organism-based, Sprague-Dawley
Design: regimen Daily Repeat, gender Male, age 6-8 weeks
Settings: in vivo, po, route oral GAVAGE, vehicle .5 % CMC; for BASOPHIL / EOSINOPHIL / ERYTHROCYTE COUNT / HEMATOCRIT / HEMOGLOBIN / LEUKOCYTE COUNT / LYMPHOCYTE / MEAN CORPUSCULAR HEMOGLOBIN / MEAN CORPUSCULAR HEMOGLOBIN CONCENTRATION / MEAN CORPUSCULAR VOLUME / MONOCYTE / NEUTROPHIL / PLATELET COUNT: tissue Blood
[1] = 0 mg/kg, […], tissue Plasma, dose level Control, time 28 day
[2] = 30 mg/kg, 72 h, dose level M1, time 3 day
[3] = 30 mg/kg, 72 h, tissue Plasma, dose level M1, time 3 day
[4] = 30 mg/kg, 120 h, dose level M1, time 5 day
[5] = 30 mg/kg, 120 h, tissue Plasma, dose level M1, time 5 day
[6] = 300 mg/kg, 72 h, dose level High, time 3 day
[7] = 300 mg/kg, 72 h, tissue Plasma, dose level High, time 3 day
[8] = 300 mg/kg, 120 h, dose level High, time 5 day
[9] = 300 mg/kg, 120 h, tissue Plasma, dose level High, time 5 day

Cc1ccc2cc3c(ccc4ccccc43)c3c2c1CC3 [3-METHYLCHOLANTHRENE]
CHOLESTEROL [1]: 59.6 mg/dL
CREATINE PHOSPHOKINASE [1]: 121.8 u/L
CREATININE [1]: 0.6 mg/dL
GLUCOSE [1]: 143 mg/dL
LACTATE DEHYDROGENASE [1]: 87.8 u/L
LIPASE [1]: 17.4 u/L
PHOSPHORUS [1]: 8.68 mg/dL
POTASSIUM [1]: 6.02 MEQ/L
SODIUM [1]: 152.8 MEQ/L
TOTAL BILIRUBIN [1]: 0.26 mg/dL
TOTAL PROTEIN [1]: 6.92 G/DL
URIC ACID [1]: 0.52 mg/dL
BASOPHIL [2]: 0.4%
EOSINOPHIL [2]: 0.4%
ERYTHROCYTE COUNT [2]: 6.58 x10E6/uL
HEMATOCRIT [2]: 41.43%
HEMOGLOBIN [2]: 13.13 G/DL
LEUKOCYTE COUNT [2]: 12.08 x10E3/uL
LYMPHOCYTE [2]: 83.17%
MEAN CORPUSCULAR HEMOGLOBIN [2]: 20 pg
MEAN CORPUSCULAR HEMOGLOBIN CONCENTRATION [2]: 31.7 G/DL
MEAN CORPUSCULAR VOLUME [2]: 63.07 fL
MONOCYTE [2]: 2.4%
NEUTROPHIL [2]: 12.5%
PLATELET COUNT [2]: 1282.33 x10E3/uL
ALANINE AMINOTRANSFERASE [3]: 39.67 u/L
ALBUMIN [3]: 3.57 G/DL
ALKALINE PHOSPHATASE [3]: 304 u/L
ASPARTATE AMINOTRANSFERASE [3]: 67.67 u/L
BLOOD UREA NITROGEN [3]: 12.67 mg/dL
CHLORIDE [3]: 104 MEQ/L
CHOLESTEROL [3]: 97.67 mg/dL
CREATINE PHOSPHOKINASE [3]: 181.67 u/L
CREATININE [3]: 0.37 mg/dL
GLUCOSE [3]: 174.33 mg/dL
PHOSPHORUS [3]: 12.23 mg/dL
POTASSIUM [3]: 6.87 MEQ/L
SODIUM [3]: 147.67 MEQ/L
TOTAL BILIRUBIN [3]: 0.43 mg/dL
TOTAL PROTEIN [3]: 6.03 G/DL
BASOPHIL [4]: 0.43%
EOSINOPHIL [4]: 0.27%
ERYTHROCYTE COUNT [4]: 6.57 x10E6/uL
HEMATOCRIT [4]: 43.27%
HEMOGLOBIN [4]: 13.43 G/DL
LEUKOCYTE COUNT [4]: 10.87 x10E3/uL
LYMPHOCYTE [4]: 82.07%
MEAN CORPUSCULAR HEMOGLOBIN [4]: 20.43 pg
MEAN CORPUSCULAR HEMOGLOBIN CONCENTRATION [4]: 31.07 G/DL
MEAN CORPUSCULAR VOLUME [4]: 65.87 fL
MONOCYTE [4]: 2.43%
NEUTROPHIL [4]: 13.57%
PLATELET COUNT [4]: 1575.33 x10E3/uL
ALANINE AMINOTRANSFERASE [5]: 38.33 u/L
ALBUMIN [5]: 3.47 G/DL
ALKALINE PHOSPHATASE [5]: 335.67 u/L
ASPARTATE AMINOTRANSFERASE [5]: 70.67 u/L
BLOOD UREA NITROGEN [5]: 15 mg/dL
CHLORIDE [5]: 103.33 MEQ/L
CHOLESTEROL [5]: 82 mg/dL
CREATINE PHOSPHOKINASE [5]: 189.33 u/L
CREATININE [5]: 0.4 mg/dL
GLUCOSE [5]: 182 mg/dL
PHOSPHORUS [5]: 12.6 mg/dL
POTASSIUM [5]: 6.87 MEQ/L
SODIUM [5]: 148.33 MEQ/L
TOTAL BILIRUBIN [5]: 0.4 mg/dL
TOTAL PROTEIN [5]: 5.77 G/DL
BASOPHIL [6]: 0.4%
EOSINOPHIL [6]: 0.37%
ERYTHROCYTE COUNT [6]: 6.99 x10E6/uL
HEMATOCRIT [6]: 43.53%
HEMOGLOBIN [6]: 13.6 G/DL
LEUKOCYTE COUNT [6]: 10.06 x10E3/uL
LYMPHOCYTE [6]: 78.97%
MEAN CORPUSCULAR HEMOGLOBIN [6]: 19.47 pg
MEAN CORPUSCULAR HEMOGLOBIN CONCENTRATION [6]: 31.3 G/DL
MEAN CORPUSCULAR VOLUME [6]: 62.23 fL
MONOCYTE [6]: 2.83%
NEUTROPHIL [6]: 15.97%
PLATELET COUNT [6]: 1201 x10E3/uL
ALANINE AMINOTRANSFERASE [7]: 33.33 u/L
ALBUMIN [7]: 3.53 G/DL
ALKALINE PHOSPHATASE [7]: 316 u/L
ASPARTATE AMINOTRANSFERASE [7]: 60 u/L
BLOOD UREA NITROGEN [7]: 12.67 mg/dL
CHLORIDE [7]: 103.67 MEQ/L
CHOLESTEROL [7]: 97.67 mg/dL
CREATINE PHOSPHOKINASE [7]: 153 u/L
CREATININE [7]: 0.43 mg/dL
GLUCOSE [7]: 185.67 mg/dL
PHOSPHORUS [7]: 12.47 mg/dL
POTASSIUM [7]: 6.9 MEQ/L
SODIUM [7]: 147 MEQ/L
TOTAL BILIRUBIN [7]: 0.5 mg/dL
TOTAL PROTEIN [7]: 5.83 G/DL
BASOPHIL [8]: 0.55%
EOSINOPHIL [8]: 0.15%
ERYTHROCYTE COUNT [8]: 6.96 x10E6/uL
HEMATOCRIT [8]: 44.15%
HEMOGLOBIN [8]: 14.05 G/DL
LEUKOCYTE COUNT [8]: 9.75 x10E3/uL
LYMPHOCYTE [8]: 87.2%
MEAN CORPUSCULAR HEMOGLOBIN [8]: 20.2 pg
MEAN CORPUSCULAR HEMOGLOBIN CONCENTRATION [8]: 31.8 G/DL
MEAN CORPUSCULAR VOLUME [8]: 63.45 fL
MONOCYTE [8]: 2.05%
NEUTROPHIL [8]: 8.8%
PLATELET COUNT [8]: 1398 x10E3/uL
ALANINE AMINOTRANSFERASE [9]: 37 u/L
ALBUMIN [9]: 3.63 G/DL
ALKALINE PHOSPHATASE [9]: 280 u/L
ASPARTATE AMINOTRANSFERASE [9]: 66.33 u/L
BLOOD UREA NITROGEN [9]: 14.67 mg/dL
CHLORIDE [9]: 103 MEQ/L
CHOLESTEROL [9]: 112 mg/dL
CREATINE PHOSPHOKINASE [9]: 163.67 u/L
CREATININE [9]: 0.4 mg/dL
GLUCOSE [9]: 178.33 mg/dL
PHOSPHORUS [9]: 13.37 mg/dL
POTASSIUM [9]: 7.9 MEQ/L
SODIUM [9]: 147.33 MEQ/L
TOTAL BILIRUBIN [9]: 0.4 mg/dL
TOTAL PROTEIN [9]: 6.13 G/DL

Reference: ChEMBL document CHEMBL3885881, “DrugMatrix”
